Data on 27 compounds can be found in US6987114B1, “Antiviral pyrimidinedione derivatives and process for the preparation thereof” (Samjin Pharmaceutical Co., Ltd, priority 1999, dated 2006).

One data set has as its system mock-infected MT-4 cells. Kind of data set: Cytotoxicity based on viability of mock-infected host cells (MTT method). It counts as cell-based. The procedure: (§1) MT-4 cells were suspended in culture media at 2.5×10^5 cells/ml and infected with 1000 CCID50 (50% cell culture infective dose) of HIV. Immediately after virus infection, 100 μl of cell suspension was brought into each well of a flat-bottomed microtitray containing various concentrations of the test compounds. After 4 or 5 days incubation at 37° C., efficacy of the compounds was determined by the MTT method. Cytotoxicity of the compounds was assessed in parallel with their antiviral activity, based on viability of mock-infected host cells as determined by the MTT method.
(Tetrazolium assays rely on reduction of a dye to a coloured formazan, in cell work by metabolically active cells.)

Another data set has as its system HIV. Kind of data set: microbe, parasite or virus in culture. It counts as cell-based. As to the method:
Anti-HIV activity tests in vitro of the compounds according to the present invention were performed as described in J. Med. Chem, 34, 357, 1991. Inhibition by the compounds of virus-induced cytotoxic effect in MT-4 cells was measured as follows.
as §1

Where [1] appears, read: mock-infected MT-4 cells, MTT method, 4 or 5 days at 37° C.
Setting [2] is: Human immunodeficiency virus 1, MT4, HIV-infected MT-4 cells, MTT method, 4 or 5 days at 37° C., read-out: ED50 (the source's name).
Where [3] appears, read: Human immunodeficiency virus 1, MT4, read-out: ED50.
The mark [4] stands for this setting: HIV-infected MT-4 cells, MTT method, 4 or 5 days at 37° C.

In brackets after ≈: the same amount, converted by molar mass. Where two headings read alike, the source gives them in different places.

As to `CCc1c(Oc2cc(C)cc(C)c2)n(CC2CCC2)c(=O)[nH]c1=O` [Example 9, 1-(Cyclobutyl)methyl-5-ethyl-6-(3,5-dimethylphenoxy)-2,4-pyrimidinedione], in the data set on mock-infected MT-4 cells (setting [1]), the CD50 was over 100.00 µg/mL. Also, the EC50 with HIV (setting [2]) stood at 0.0756 µg/mL (≈ 0.23 µM).
In the data set on mock-infected MT-4 cells (setting [1]), `CCc1c(Sc2cc(C)cc(C)c2)n(CC2CCCCC2)c(=O)[nH]c1=O` [Example 13, 1-(Cyclohexyl)methyl-5-ethyl-6-(3,5-dimethylphenyl)thio-2,4-pyrimidinedione] had a CD50 of 11.10 µg/mL. Besides, the EC50 in the data set with HIV (setting [3]) is 0.27 µg/mL (≈ 0.725 µM).
In turn, `Cc1cc(C)cc(Oc2c(C(C)C)c(=O)[nH]c(=O)n2Cc2ccccc2)c1` [Example 22, 1-Benzyl-5-isopropyl-6-(3,5-dimethylphenoxy)-2,4-pyrimidinedione] gave a CD50 in the data set on mock-infected MT-4 cells (setting [1]) of 25.48 µg/mL. Besides, the EC50 with HIV (setting [2]) was 0.015 µg/mL (≈ 0.0412 µM).
In turn, `CCc1c(Oc2cc(C)cc(C)c2)n(CC2CCCCC2)c(=O)[nH]c1=O` [Example 15, 1-(Cyclohexyl)methyl-5-ethyl-6-(3,5-dimethylphenoxy)-2,4-pyrimidinedione] returned a CD50 in the data set with mock-infected MT-4 cells (setting [1]) of 9.17 µg/mL. The EC50 in the data set with HIV (setting [3]) came to 0.069 µg/mL (≈ 0.194 µM).
The compound `Cc1cc(C)cc(C(=O)c2c(C(C)C)c(=O)[nH]c(=O)n2Cc2ccccn2)c1` [Example 114, 1-(Pyridin-2-2-ylmethyl)-5-isopropyl-6-(3,5-dimethyl-benzoyl)-2,4-pyrimidinedione] returned a CD50 with mock-infected MT-4 cells (setting [1]) of 24.60 µg/mL. This compound had an ED50 in the data set with HIV (setting [4]) of 0.0032 µg/mL (≈ 0.00848 µM).
In the data set on mock-infected MT-4 cells (setting [1]), `CCc1c(Sc2cc(C)cc(C)c2)n(CC2CCC2)c(=O)[nH]c1=O` [Example 7, 1-(Cyclobutyl)methyl-5-ethyl-6-(3,5-dimethylphenyl)thio-2,4-pyrimidinedione] returned a CD50 of 11.73 µg/mL. For the same compound, the EC50 in the data set with HIV (setting [2]) was found to be 0.028 µg/mL (≈ 0.0813 µM).
For the compound `CCc1c(C(=O)c2cc(C)cc(C)c2)n(CC2CO2)c(=O)[nH]c1=O` (stereo not drawn) [Example 139, 1-(2,3-Epoxypropyl)-5-ethyl-6-(3,5-dimethylbenzoyl)-2,4-pyrimidinedione], the CD50 with mock-infected MT-4 cells (setting [1]) was over 100.00 µg/mL. In addition, in the data set with HIV (setting [3]), the EC50 came out at 0.34 µg/mL (≈ 1.04 µM).
“1-(2-Naphthalenemethyl)-5-isopropyl-6-(3,5-dimethyl-benzoyl)-2,4-pyrimidinedione [Example 96]” registered a CD50 with mock-infected MT-4 cells (setting [1]) of 9.64 µg/mL. This compound also yielded an ED50 with HIV (setting [4]) of 0.014 µg/mL.
Consider `Cc1cc(C)cc(Sc2c(C(C)C)c(=O)[nH]c(=O)n2Cc2ccccc2)c1` [Example 20, 1-Benzyl-5-isopropyl-6-(3,5-dimethylphenyl)thio-2,4-pyrimidinedione], for which, in the data set with mock-infected MT-4 cells (setting [1]), the CD50 came out at 11.30 µg/mL. Besides, the EC50 with HIV (setting [2]) was 0.012 µg/mL (≈ 0.0315 µM).
In the case of `Cc1cc(C)cc(Sc2c(C(C)C)c(=O)[nH]c(=O)n2CC2CCCCC2)c1` [Example 14, 1-(Cyclohexyl)methyl-5-isopropyl-6-(3,5-dimethylphenyl)thio-2,4-pyrimidinedione], in the data set on mock-infected MT-4 cells (setting [1]), the CD50 turned out to be 6.40 µg/mL. Also, in the data set with HIV (setting [3]), the EC50 was determined as 0.061 µg/mL (≈ 0.158 µM).
With `CCc1c(Sc2cc(C)cc(C)c2)n(Cc2ccccc2)c(=O)[nH]c1=O` [Example 19, 1-Benzyl-5-ethyl-6-(3,5-dimethylphenyl)thio-2,4-pyrimidine-dione], the CD50 in the data set with mock-infected MT-4 cells (setting [1]) stood at 12.59 µg/mL. For the same compound, in the data set with HIV (setting [2]), the EC50 came to 0.015 µg/mL (≈ 0.0409 µM).
In the data set with mock-infected MT-4 cells (setting [1]), “1-(2-Naphthalenemethyl)-5-isopropyl-6-(3,5-dimethyl-phenyl)thio-2,4-pyrimidinedione [Example 92]” showed a CD50 of 8.93 µg/mL. In the data set with HIV (setting [4]), this compound had an ED50 of 0.013 µg/mL.
For “1-(Benzoxazol-2-ylmethyl)-5-isopropyl-6-(3,5-dimethyl-benzoyl-2,4-pyrimidinedione [Example 150]”, in that order: 7.09 µg/mL and 0.0031 µg/mL.
Turning to “1-(2-Naphthalenemethyl)-5-ethyl-6-(3,5-dimethylphenoxy)-2,4-pyrimidinedione [Example 93]”, in the data set on mock-infected MT-4 cells (setting [1]), the CD50 amounted to 83.22 µg/mL. Also, the ED50 with HIV (setting [4]) came to 0.013 µg/mL.
`CCc1c(Sc2cc(C)cc(C)c2)n(Cc2occc2C(=O)OC)c(=O)[nH]c1=O` [Example 151, 1-(3-Methoxycarbonyl-2-furanylmethyl)-5-ethyl-6-(3,55 dimethylphenyl)thio-2,4-pyrimidinedione] displayed a CD50 with mock-infected MT-4 cells of 8.67 µg/mL. The compound further registered an ED50 with HIV (setting [4]) of 0.015 µg/mL (≈ 0.0362 µM).
The like results for “1-(Phenacyl)-5-isopropyl-6-(3,5-dimethylphenoxy)-2,420 pyrimidinedione [Example 166]” were, in that order, over 100.00 µg/mL and 0.7562 µg/mL.
Consider `Cc1cn([C@H]2C[C@H](N=[N+]=[N-])[C@@H](CO)O2)c(=O)[nH]c1=O` [AZT], for which the CD50 in the data set on mock-infected MT-4 cells (setting [1]) came to 0.70 µg/mL. The same compound returned an ED50 in the data set on HIV (setting [4]) of 0.0015 µg/mL (≈ 0.00561 µM).
For `Cc1cc(C)cc(C(=O)c2c(C(C)C)c(=O)[nH]c(=O)n2CC2CO2)c1` (stereo not drawn) [Example 140, 1-(2,3-Epoxypropyl)-5-isopropyl-6-(3,5-dimethylbenzoyl)-2,4-pyrimidinedione], the CD50 in the data set on mock-infected MT-4 cells (setting [1]) is 41.90 µg/mL. For the same compound, the EC50 in the data set with HIV (setting [3]) is 0.094 µg/mL (≈ 0.275 µM).
As to `CCc1c(C(=O)c2cc(C)cc(C)c2)n(Cc2cccc(Br)n2)c(=O)[nH]c1=O` [Example 129, 1-(2-Bromopyridib-6-ylmethyl)-5-ethyl-6-(3,5-dimethyl-benzoyl)-2,4-pyrimidinedione], in the data set on mock-infected MT-4 cells, the CD50 stood at 7.44 µg/mL. This compound also yielded an ED50 with HIV (setting [4]) of 0.010 µg/mL (≈ 0.0226 µM).
Compound `Cc1cc(C)cc(Oc2c(C(C)C)c(=O)[nH]c(=O)n2CC2CCC2)c1` [Example 10, 1-(Cyclobutyl)methyl-5-isopropyl-6-(3,5-dimethylphenoxy)-2,4-pyrimidinedione] returned a CD50 in the data set on mock-infected MT-4 cells (setting [1]) of 7.8 µg/mL. The EC50 in the data set on HIV (setting [2]) turned out to be 0.0147 µg/mL (≈ 0.0429 µM).
In the data set with mock-infected MT-4 cells (setting [1]), `Cc1cc(C)cc(Oc2c(C(C)C)c(=O)[nH]c(=O)n2CC2CO2)c1` (stereo not drawn) [Example 138, 1-(2,3-Epoxypropyl)-5-isopropyl-6-(3,5-dimethylphenoxy)-2,4-pyrimidinedione] gave a CD50 of 39.60 µg/mL. Besides, the EC50 in the data set on HIV (setting [3]) was 0.34 µg/mL (≈ 1.03 µM).
In the data set with mock-infected MT-4 cells (setting [1]), `Cc1cc(C)cc(Sc2c(C(C)C)c(=O)[nH]c(=O)n2CC2CCC2)c1` [Example 8, 1-(Cyclobutyl)methyl-5-isopropyl-6-(3,5-dimethylphenyl)thio-2,4-pyrimidinedione] came in with a CD50 of 5.9 µg/mL. Besides, the EC50 in the data set with HIV (setting [2]) is 0.013 µg/mL (≈ 0.0363 µM).
With `CCC(=O)Cn1c(C(=O)c2cc(C)cc(C)c2)c(CC)c(=O)[nH]c1=O` [Example 163, 1-(2-Butanon-1-yl)-5-ethyl-6-(3,5-dimethylbenzoyl) δ 2,4-pyrimidinedione], in the data set with mock-infected MT-4 cells (setting [1]), the CD50 amounted to 9.31 µg/mL. In the data set with HIV (setting [4]), the ED50 was found to be 0.0034 µg/mL (≈ 0.00993 µM).
The like results for “1-(2-Naphthalenemethyl)-5-ethyl-6-(3,5-dimethylphenyl)thio-2,4-pyrimidinedione [Example 91]” were, in that order, 1.27 µg/mL and 0.004 µg/mL.
In the data set with mock-infected MT-4 cells, “1-(Phenacyl)-5-isopropyl-6-(3,5-dimethylbenzoyl)-2,430 pyrimidinedione [Example 168]” came in with a CD50 of 5.48 µg/mL. In the data set with HIV (setting [4]), the ED50 was found to be 0.0174 µg/mL.
Take `Cc1cc(C)cc(Oc2c(C(C)C)c(=O)[nH]c(=O)n2CC2CCCCC2)c1` [Example 16, 1-(Cyclohexyl)methyl-5-isopropyl-6-(3,5-dimethylphenoxy)-2,4-pyrimidinedione]: the CD50 with mock-infected MT-4 cells (setting [1]) worked out at 8.30 µg/mL. Further, the EC50 in the data set with HIV (setting [3]) amounted to 0.065 µg/mL (≈ 0.175 µM).
In the case of `CCc1c(Oc2cc(C)cc(C)c2)n(CC2CC2)c(=O)[nH]c1=O` [Example 3, 1-(Cyclopropyl)methyl-5-ethyl-6-(3,5-dimethylphenoxy)-2,4-pyrimidinedione], the CD50 in the data set with mock-infected MT-4 cells (setting [1]) is over 100.00 µg/mL. In addition, in the data set with HIV (setting [2]), the EC50 is 0.011 µg/mL (≈ 0.035 µM).
